Results: patent EP3184514A1, “AUTOPHAGY INHIBITORS” (Deutsches Krebsforschungszentrum, priority 2015, dated 2017)

Columns and labels:
GST-tagged LC3B = molecular target: T1, GST-tagged LC3B (Homo sapiens, UniProt Q9GZQ8); test: GST-pulldown with purified GST-LC3B and lysates of treated cells; details: HEK293T cells treated 100 µM, 1 hour; remaining binding compared to DMSO control
T1 construct: made in house; host or cells: E. coli Rosetta (DE3)
Method: A gene encoding for human LC3B protein inserted in a pET-GST expression vector was used as a template. Rosetta (DE3) competent cells were transformed by started procedure, plated on an LB agar plate with ampicillin (100 µg/ml) and left overnight at 37 °C. Overnight culture was prepared from a single colony and shaken at 180 rpm at 37 °C. LB medium with ampicillin was inoculated with overnight culture (10 ml per 500 ml of LB) and shaken until the optical density at 600 nm (OD600) reached a value of approximately 0.6. Protein expression was then induced with 400 µM IPTG and further incubated for 4 hours. Bacterial culture was centrifuged for 20 minutes at 6000 rpm at 4 °C. The pellet was then resuspended in lysis buffer (20 mM TRIS-HCl pH 7.5, 10 mM EDTA, 5 mM EGTA, 150 mM NaCl, 0.5 % NP40, 1 % Triton X-100, 1 mM DTT, 2 mg/ml lysozyme, 0.05 U/µl benzonase, 1x protease inhibitor cocktail). Lysate was then stored at -20 °C over night. Sample was thawed in water bath and sonicated on ice (40 % amplitude, 30 seconds pulse/30 seconds pause cycle). Lysate was centrifuged at 10000xg at 4 °C for half an hour. Meanwhile, 500 µl of glutathione sepharose beads was equilibrated with lysis buffer and then added to the supernatant. The mixture was incubated and rotated at room temperature for 2 hours. After binding of the protein to the beads, beads were spun down at 500xg at 4 °C for 5 minutes. […]

U2OS cells = test: autophagic flux by confocal microscopy and western blotting; type: cell-based, Human
Method: […]. After harvesting, cells were lysed with radioimmunoprecipitation assay (RIPA) buffer (50 mM Tris-HCl, pH 7.5, 150 mM NaCl, 0.5 % deoxycholate, 1 % Triton X-100, 0.1 % SDS and 1x protease inhibitors) and left on ice for 30 minutes. Cell lysates were clarified by centrifugation at 10000xg for 20 min at 4 °C. Protein concentrations of the supernatants were determined by BCA assay and the absorbance was measured at 562 nm. SDS-PAGE and WB was performed.
For screening purposes, cells were seeded in 384 well plates and left over night for attachment. […]. For controls, cells were treated with 250 nM torin and/or 100 nM BafA1 for 2 hours.
Afterwards, medium was removed and 4 % (w/v) paraformaldehyde (PFA) in PBS buffer was added to the cells for 20 minutes, incubated at room temperature. Cells were permeabilized with 0.1 % (v/v) Triton X-100 for 10 min at room temperature and washed with PBS. Cells were blocked with 3 % (w/v) bovine serum albumin (BSA) in PBS for 45 minutes at 37 °C and then incubated with anti-LC3B (PM036, MBL) or anti-p62 (PM045 or M162-3, MBL) primary antibody diluted in 0.3 % BSA (1:2000 or 1:500) for 1.5-2 hours at 37 °C. Cells were washed three times with PBS. Secondary Alexa Fluor 488 - labeled antibodies (A-11008, Invitrogen) were diluted in 0.3 % BSA (1:2500) and incubated on cells for 15 minutes at 37 °C. Cells were washed once with PBS, incubated with DRAQ5 (#4084, Cell Signaling) diluted in PBS (1:5000) for 10 minutes and washed three times with PBS.
384 well plates were then analyzed with an automated confocal microscope Opera (PerkinElmer) enabling high throughput high content screening image analysis. […] Signal was detected with a fast gated CCD camera. […]
The LC3B protein is a ubiquitin-like protein that can be conjugated to phosphatidylethanolamine (PE) in the membrane of the incipient autophagosome. […] Autophagic flux is often inferred on the basis of LC3B-II turnover, measured by western blot (WB) or immunofluorescence (IF) in the presence and absence of lysosomal degradation. […]

Brc1ccc(CSC2=NCN(Cc3cccnc3)CN2)cc1 [Compound I-1, 6-((4-bromobenzyl)thio)-3-(pyridin-3-ylmethyl)-1,2,3,4-tetrahydro-1,3,5-triazine]
binding of p62 and ATG13 to GST-tagged LC3B (GST-tagged LC3B): approximately 50% | numbers of LC3B spots and levels of LC3B-II (U2OS cells; 100 µM compound together with BafA1 100 nM, compared with single treatment): did not increased further | amount of LC3B-II protein and LC3B spots (U2OS cells; 100 µM, 1 hr): increased
